These are literature values, as cited in US20040052855A1, “Microparticles of biodegradable polymer encapsulating a biologically active substance and sustained release pharmaceutical formulations containing same” (priority 2003, published 2004).

The conditions of the data set: in water at 20-25° C.

Take `ClCCl` [dichloromethane]: the solubility in water is reported as 1.32 % (by weight).
For the molecule `CCOC(C)=O` [ethyl acetate], the solubility in water is 8.70 % (by weight).
